Active and inactive are the calls of the source. The rule behind the calls is not given here.
What follows are molecules tested on KB (assay: Cytotoxicity against human KB cells at 3 uM).
Type: functional
`CN1C(=O)N[C@H]2[C@@H]3NC(=O)c4ccc(Br)n4[C@@H]3C[C@]21O` [AGELASTATIN A] was tested, and the Activity was 100%.

The molecules below were run on KB (assay: Cytotoxicity against human KB cells at 30 uM).
Type: functional
With `Nc1nc([C@H]2[C@H](CNC(=O)c3cc(Br)c[nH]3)[C@@H](CNC(=O)c3cc(Br)c[nH]3)[C@@H]2c2c[nH]c(N)n2)c[nH]1` the Activity was “inactive”.
With `N=C1N=C(NCCS(=O)(=O)O)/C(=C/CCNC(=O)c2cc(Br)c(Br)[nH]2)N1` the Activity was “inactive”.
For `c1ccc2c(-c3c[nH]c(-c4c[nH]c5ccccc45)n3)c[nH]c2c1`, the Activity was “inactive”.
`CN1C(=O)N[C@H]2[C@@H]3NC(=O)c4ccc(Br)n4[C@@H]3C[C@]21O` [AGELASTATIN A] showed an Activity of 100%.
With `NC(=O)c1cc(Br)c(Br)[nH]1` the Activity was “inactive”.
`O=C1NCC(O)n2c1cc(Br)c2Br` (centres undefined) was tested, and the Activity was “inactive”.
With `N=C1N=C(NCCS(=O)(=O)O)/C(=C/C(O)CNC(=O)c2cc(Br)c(Br)[nH]2)N1` (centres undefined) the Activity was “inactive”.
For `O=C1N[C@H]2[C@@H]3NC(=O)c4cc(Br)c(Br)n4[C@@H]3C[C@@]2(O)N1`, the Activity was “inactive”.
`C[C@]1(COC(=O)c2cc(Br)c[nH]2)C[C@@H](C(=O)O)N=CN1` was tested, and the Activity was “inactive”.
For `Cc1c[nH]c(=O)[nH]c1=O`, the Activity was “inactive”.
In the case of `CO[C@@]12C[C@@H]3[C@@H](NC(=O)c4ccc(Br)n43)[C@@H]1NC(=O)N2C`, the Activity is reported as “inactive”.
`Nc1nc2c([nH]1)c1c(c3[nH]c(N)nc32)[C@H](CNC(=O)c2cc(Br)c(Br)[nH]2)[C@H]1CNC(=O)c1cc(Br)c(Br)[nH]1` was tested, and the Activity was “inactive”.
With `O=C1N[C@H]2[C@@H]3NC(=O)c4ccc(Br)n4[C@@H]3C[C@@]2(O)N1` the Activity was “inactive”.

From ChEMBL document CHEMBL1157067, “Agelastatin E, agelastatin F, and benzosceptrin C from the marine sponge Agelas dendromorpha” (2010)
